This note sets out measurements from patent US10273224B2, “Substituted pyrimidine compounds, compositions and medicinal applications thereof” (JUBILANT BIOSYS LIMITED, priority 2013, dated 2019).

This test has as its target T1, EGFR (L858R & T790M) (Homo sapiens, UniProt P00533, L858R/T790M).
T1 construct: GST; purchased Proqinase
Kind of test: EGFR (L858R & T790M) inhibition assay, HTRF method. The note with it: biochemical HTRF; EGFR (T790M/L858R) 2.5 nM, ATP 5 μM, 60 min room temperature. How it is done:
Example 25: Biological Activity: EGFR T790M Assay Protocol
The objective of the experiment is to find the IC50 for the compounds using HTRF method.
Reagents for Enzyme Assay:
1. Enzyme Assay Buffer: 60 mM HEPES (pH 7.4), 50 mM NaCl, 20 mM MgCl2, 5 mM MnCl2, filter using 0.2 µm pore size, store at 4° C.
Supplements (add fresh to the enzyme buffer): Make 1M DTT stock, 5% BSA stock and 0.1M Na3OV4 stored at 4° C. Enzyme assay buffer 50 ml, 1 M DTT 100 μl, 5% BSA 500 μl, 0.1M Na3OV4 50 μl.
2. GST-hEGFR (L858R), active: EGFR (T790M/L858R), active (Proqinase), 3.6 μM stock; 2.5 nM in final assay.
3. Gastrin Precusor-Biotinylated: Gastrin precursor (Tyr87) biotinylated peptide (EEAY*GWM), Cell Signaling Tech 1310, Lot-7, Want final 0.5 μM in assay
4. ATP: 10 mM stock in 100 μl Enzyme assay buffer pH 7.4 prepared freshly, want 5 μM in final assay.
5. Test compounds: Dissolve powders in 100% DMSO to a final stock concentration of 10 mM (volume in μL to add for 10 mM=mg powder×10^5/MW). Final comp concentration in the assay plate is starting at 10 μM.
1. HTRF buffer: 50 mM Tris-HCl, pH-7.5, 100 mM NaCl, 0.1% BSA, 0.05% Tween20, 0.5 mM EDTA, filter using 0.2 µm pore size, store at 4° C.
Phycolink® Streptavidin-Allophycocyanin (SA-APC) Prozyme, Cat. #PJ25S, Lot #896 085, 2.06 mg/mL, APC concentration is 11.6 μM, streptavidin concentration is 15.5 μM. Want 12 nM final in assay (based on streptavidin concentration).
2. Europium-W1024-PT-66 Anti Phospho Tyrosine Antibody: Perkin Elmer (AD0068), monoclonal IgG1 that recognizes phospho tyrosine peptide 100 μg/ml stock. Want 0.1 nM final in assay.
• 1. Make the compound dilution by TECAN as per the above scheme. • 2. Add 16 μl of diluted compound to the assay plate by using TECAN • 3. Add 10 μl of enzyme mix to each well except mins. • 4. Add 20 μl of substrate and ATP mix into each well of the assay plate manually. • 5. Incubate the plate at room temperature for 60 min with shaking. • 6. Meanwhile prepare the HTRF mix and add 75 μl to the HTRF plate. • 7. When the incubation is over, transfer 10 μl of the reaction mixture to the HTRF assay plate and incubate for 30 min at room temperature with shaking. • 8. Take the reading in Pherastar (ext 337 nm, em 665 & 620 nm). • 9. Analyze the results using Graphpad prism after calculation the z factor, signal window and % inhibition to get the IC50.
Compounds having IC50<10 nM are designated as “A”; 10-100 nM are designated as “B”; and >100 nM as “C”.
A general note: Time-resolved FRET reads energy transfer from a long-lived donor to a nearby acceptor.

T1 sequence (P00533 25-1210 T790M/L858R): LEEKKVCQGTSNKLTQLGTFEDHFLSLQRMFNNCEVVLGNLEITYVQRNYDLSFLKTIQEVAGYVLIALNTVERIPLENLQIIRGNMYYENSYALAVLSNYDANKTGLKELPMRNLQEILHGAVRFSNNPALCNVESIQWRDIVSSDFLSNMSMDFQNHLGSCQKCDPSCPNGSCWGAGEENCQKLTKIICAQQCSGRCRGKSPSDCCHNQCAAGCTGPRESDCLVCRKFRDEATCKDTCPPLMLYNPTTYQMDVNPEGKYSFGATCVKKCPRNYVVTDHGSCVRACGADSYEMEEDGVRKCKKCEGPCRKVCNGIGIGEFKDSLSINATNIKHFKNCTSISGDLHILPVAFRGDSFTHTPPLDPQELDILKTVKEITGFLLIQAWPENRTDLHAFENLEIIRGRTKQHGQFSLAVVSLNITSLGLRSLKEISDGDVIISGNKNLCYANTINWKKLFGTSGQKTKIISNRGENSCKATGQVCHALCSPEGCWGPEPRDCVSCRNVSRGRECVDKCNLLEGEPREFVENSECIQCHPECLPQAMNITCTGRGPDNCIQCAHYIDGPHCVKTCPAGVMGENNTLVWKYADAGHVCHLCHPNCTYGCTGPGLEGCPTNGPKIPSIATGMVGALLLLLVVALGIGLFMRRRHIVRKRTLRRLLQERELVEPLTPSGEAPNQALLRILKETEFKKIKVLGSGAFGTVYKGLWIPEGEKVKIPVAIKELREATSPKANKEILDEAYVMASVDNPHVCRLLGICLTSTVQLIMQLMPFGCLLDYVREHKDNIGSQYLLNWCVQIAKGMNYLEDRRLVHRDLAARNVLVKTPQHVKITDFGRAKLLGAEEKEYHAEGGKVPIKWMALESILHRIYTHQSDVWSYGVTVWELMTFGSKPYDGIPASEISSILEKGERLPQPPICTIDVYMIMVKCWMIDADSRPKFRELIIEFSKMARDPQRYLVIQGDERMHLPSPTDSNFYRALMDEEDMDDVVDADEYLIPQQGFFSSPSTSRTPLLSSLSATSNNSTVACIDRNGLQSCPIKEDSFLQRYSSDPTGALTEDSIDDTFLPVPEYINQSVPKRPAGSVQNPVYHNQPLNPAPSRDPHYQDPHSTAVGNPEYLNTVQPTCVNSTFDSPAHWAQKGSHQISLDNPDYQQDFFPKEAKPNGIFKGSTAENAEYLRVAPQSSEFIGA

As to `C=CC(=O)Nc1cccc(Nc2nc(Nc3cn(CCOC)nc3C)ncc2Cl)c1` [Compound I-2, N-(3-((5-chloro-2-((1-(2-methoxyethyl)-3-methyl-1H-pyrazol-4-yl)amino)pyrimidin-4-yl)amino)phenyl)acrylamide], the IC50 was > 100 nM.

For `C=CC(=O)Nc1cccc(Nc2nc(Nc3cnn(CCOC)c3C)ncc2Cl)c1` [Compound I-3, N-(3-((5-chloro-2-((1-(2-methoxyethyl)-5-methyl-1H-pyrazol-4-yl)amino)pyrimidin-4-yl)amino)phenyl)acrylamide], the IC50 fell in the range of 10 to 100 nM.

On to `C=CC(=O)Nc1cccc(Nc2nc(Nc3cnn(C(C)C)c3)ncc2Cl)c1` [Compound I-4, N-(3-((5-chloro-2-((1-isopropyl-1H-pyrazol-4-yl)amino)pyrimidin-4-yl)amino)phenyl)acrylamide], for which the IC50 lay in the range of 10 to 100 nM.

As for `C=CC(=O)Nc1cccc(Nc2nc(Nc3cnn(CCN(C)C)c3)ncc2Cl)c1` [Compound I-5, N-(3-((5-chloro-2-((1-(2-(dimethylamino)ethyl)-1H-pyrazol-4-yl)amino)pyrimidin-4-yl)amino)phenyl)acrylamide], the IC50 lay within 10 to 100 nM.

Consider `COCCn1cc(Nc2ncc(Cl)c(Nc3cccc(NC(=O)C=C4CCCCC4)c3)n2)cn1` [Compound I-6, N-(3-((5-chloro-2-((1-(2-methoxyethyl)-1H-pyrazol-4-yl)amino)pyrimidin-4-yl)amino)phenyl)-2-cyclohexylideneacetamide], for which the IC50 was > 100 nM.

`C=CC(=O)Nc1cccc(Nc2nc(Nc3cnn(CC4CC4)c3)ncc2Cl)c1` [Compound I-7, N-(3-((5-chloro-2-((1-(cyclopropylmethyl)-1H-pyrazol-4-yl)amino)pyrimidin-4-yl)amino)phenyl)acrylamide]: the half-maximal inhibitory concentration (IC50) fell in the range of 10 to 100 nM.

In the case of `C=CC(=O)Nc1cccc(Nc2nc(Nc3c(C)nn(C4CCN(C)CC4)c3C)ncc2Cl)c1` [Compound I-8, N-(3-((5-chloro-2-((3,5-dimethyl-1-(1-methylpiperidin-4-yl)-1H-pyrazol-4-yl)amino)pyrimidin-4-yl)amino)phenyl)acrylamide], the 50% inhibitory concentration (IC50) is > 100 nM.

For `C=C(C)C(=O)Nc1cccc(Nc2nc(Nc3cnn(C4CCN(C)CC4)c3)ncc2Cl)c1` [Compound I-9, N-(3-((5-chloro-2-((1-(1-methylpiperidin-4-yl)-1H-pyrazol-4-yl)amino)pyrimidin-4-yl)amino)phenyl)methacrylamide], the half-inhibitory concentration (IC50) is > 100 nM.

Consider `C=CC(=O)Nc1cccc(Nc2nc(Nc3cnn(S(C)(=O)=O)c3)ncc2Cl)c1` [Compound I-10, N-(3-((5-chloro-2-((1-(methylsulfonyl)-1H-pyrazol-4-yl)amino)pyrimidin-4-yl)amino)phenyl)acrylamide], for which the IC50 is 10 to 100 nM.

In the case of `C=CC(=O)Nc1cccc(Nc2nc(Nc3c(C)nn(C)c3C)ncc2Cl)c1` [Compound I-11, N-(3-((5-chloro-2-((1,3,5-trimethyl-1H-pyrazol-4-yl)amino)pyrimidin-4-yl)amino)phenyl)acrylamide], the IC50 was > 100 nM.

Consider `C=CC(=O)Nc1cccc(Nc2nc(Nc3cnn(C4CCN(C)CC4)c3)ncc2OC)c1` [Compound I-12, N-(3-((5-methoxy-2-((1-(1-methylpiperidin-4-yl)-1H-pyrazol-4-yl)amino)pyrimidin-4-yl)amino)phenyl)acrylamide], for which the IC50 was 10 to 100 nM.

Consider `C=CC(=O)Nc1cccc(Nc2nc(Nc3cnn(C4CCN(C)CC4)c3)ncc2C)c1` [Compound I-13, N-(3-((5-methyl-2-((1-(1-methylpiperidin-4-yl)-1H-pyrazol-4-yl)amino)pyrimidin-4-yl)amino)phenyl)acrylamide], for which the IC50 was 10 to 100 nM.

For the compound `C=CC(=O)Nc1cccc(Nc2nc(Nc3cnn(C4CCN(C)CC4)c3)ncc2C(F)(F)F)c1` [Compound I-14, N-(3-((2-((1-(1-methylpiperidin-4-yl)-1H-pyrazol-4-yl)amino)-5-(trifluoromethyl)pyrimidin-4-yl)amino)phenyl)acrylamide], the IC50 was > 100 nM.

Turning to `C=CC(=O)Nc1cccc(Nc2nc(Nc3cnn(C)c3)ncc2C)c1` [Compound I-15, N-(3-((5-methyl-2-((1-methyl-1H-pyrazol-4-yl)amino)pyrimidin-4-yl)amino)phenyl)acrylamide], the IC50 is 10 to 100 nM.

Consider `C=CC(=O)Nc1cccc(Nc2nc(Nc3cnn(C4CCN(CCF)CC4)c3)ncc2Cl)c1` [Compound I-16, N-(3-((5-chloro-2-((1-(1-(2-fluoroethyl)piperidin-4-yl)-1H-pyrazol-4-yl)amino)pyrimidin-4-yl)amino)phenyl)acrylamide], for which the 50% inhibitory concentration (IC50) was < 10 nM.

With `C=CC(=O)Nc1cccc(Nc2nc(Nc3cnn(CC(C)(C)O)c3)ncc2Cl)c1` [Compound I-17, N-(3-((5-chloro-2-((1-(2-hydroxy-2-methylpropyl)-1H-pyrazol-4-yl)amino)pyrimidin-4-yl)amino)phenyl)acrylamide], the half-inhibitory concentration (IC50) is > 100 nM.

For the compound `C=CC(=O)Nc1cccc(Nc2nc(Nc3cnn(C4CCN(C)CC4)c3)ncc2F)c1` [Compound I-18, N-(3-((5-fluoro-2-((1-(1-methylpiperidin-4-yl)-1H-pyrazol-4-yl)amino)pyrimidin-4-yl)amino)phenyl)acrylamide], the IC50 was in the range of 10 to 100 nM.

Regarding `C=CC(=O)Nc1cccc(Nc2nc(Nc3cnn(C)c3)ncc2Cl)c1` [Compound I-19, N-(3-((5-chloro-2-((1-methyl-1H-pyrazol-4-yl)amino)pyrimidin-4-yl)amino)phenyl)acrylamide], the half-inhibitory concentration (IC50) was < 10 nM.

For the compound `C=CC(=O)Nc1cccc(Nc2nc(Nc3cnn(CCOC)c3)ncc2Cl)c1` [Compound I-20, N-(3-((5-chloro-2-((1-(2-methoxyethyl)-1H-pyrazol-4-yl)amino)pyrimidin-4-yl)amino)phenyl)acrylamide], the concentration for half-maximal inhibition (IC50) was 10 to 100 nM.

As for `C=CC(=O)Nc1cccc(Nc2nc(Nc3cnn(CCO)c3)ncc2Cl)c1` [Compound I-21, N-(3-((5-chloro-2-((1-(2-hydroxyethyl)-1H-pyrazol-4-yl)amino)pyrimidin-4-yl)amino)phenyl)acrylamide], the half-inhibitory concentration (IC50) is < 10 nM.

As to `C=CC(=O)Nc1cccc(Nc2nc(Nc3cnn(S(=O)(=O)C4CC4)c3)ncc2Cl)c1` [Compound I-22, N-(3-((5-chloro-2-((1-(cyclopropylsulfonyl)-1H-pyrazol-4-yl)amino)pyrimidin-4-yl)amino)phenyl)acrylamide], the 50% inhibitory concentration (IC50) lay in the range of 10 to 100 nM.

For the compound `C=CC(=O)Nc1cccc(Nc2nc(Nc3cnn(C)c3C)ncc2Cl)c1` [Compound I-23, N-(3-((5-chloro-2-((1,5-dimethyl-1H-pyrazol-4-yl)amino)pyrimidin-4-yl)amino)phenyl)acrylamide], the half-inhibitory concentration (IC50) was > 100 nM.

As to `C=CC(=O)Nc1cccc(Nc2nc(Nc3cc(COC)n(C)n3)ncc2Cl)c1` [Compound I-24, N-(3-((5-chloro-2-((5-(methoxymethyl)-1-methyl-1H-pyrazol-3-yl)amino)pyrimidin-4-yl)amino)phenyl)acrylamide], the IC50 lay within 10 to 100 nM.

Regarding `CN1CCC(n2cc(Nc3ncc(Cl)c(Nc4cccc(NC(=O)C=C5CCC(F)(F)CC5)c4)n3)cn2)CC1` [Compound I-25, N-(3-((5-chloro-2-((1-(1-methylpiperidin-4-yl)-1H-pyrazol-4-yl)amino)pyrimidin-4-yl)amino)phenyl)-2-(4,4-difluorocyclohexylidene)acetamide], the half-maximal inhibitory concentration (IC50) was > 100 nM.

Consider `CN1CCC(n2cc(Nc3ncc(Cl)c(Nc4cccc(NC(=O)C=C5CCOCC5)c4)n3)cn2)CC1` [Compound I-26, N-(3-((5-chloro-2-((1-(1-methylpiperidin-4-yl)-1H-pyrazol-4-yl)amino)pyrimidin-4-yl)amino)phenyl)-2-(dihydro-2H-pyran-4(3H)-ylidene)acetamide], for which the IC50 was > 100 nM.

For the compound `CN1CCC(n2cc(Nc3ncc(Cl)c(Nc4ccc(F)c(NC(=O)C=C5CCCCC5)c4)n3)cn2)CC1` [Compound I-27, N-(5-((5-chloro-2-((1-(1-methylpiperidin-4-yl)-1H-pyrazol-4-yl)amino)pyrimidin-4-yl)amino)-2-fluorophenyl)-2-cyclohexylideneacetamide], the IC50 is > 100 nM.

The term IC50 denotes the concentration that inhibits the measured activity by half.
